Assay results from patent US10689362B2, “Quinoxaline compounds as type III receptor tyrosine kinase inhibitors” (Development Center for Biotechnology, priority 2016, dated 2020).

What was measured:
[1] = tested on: Kasumi-1 human acute myeloid leukemia cell with c-KIT N822K activating mutation; experiment: Kasumi-1 cell proliferation assay (CellTiter-96); type: cell-based; conditions: Cytotoxicity, Kasumi-1 cells, 72 hours
Outline: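 Kasumi-1 cells, seeded at 64000 cells/well and incubated overnight at 37 °C, were exposed to increasing compound concentrations for 72 h. Viability was measured by CellTiter96 AQueous One reagent (4 h) and absorbance at 490 nm.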

[2] = tested on: osteoclast precursors (osteoclast differentiation); experiment: Osteoclast tartrate-resistant acid phosphatase assay; type: cell-based; conditions: 168 h, at 1 μM treatment, 7 days, RANKL and M-CSF, read-out: inhibition activity against osteoclast differentiation
Description: A serial dilution of test compound was dispensed into a 96-well black clear bottom plate. Compound was diluted by the addition of DMEM media supplemented with 10% characterized fetal bovine serum. Diluted compound was transferred to a 96-well black clear bottom plate. Three thousand osteoclast precursors (Lonza, Walkersville, Md.) were added per well in growth medium containing Receptor Activator of Nuclear Factor Kappa-beta ligand (RANKL) and M-CSF. […] At the end of the incubation period, 50 μL of supernatant from each well was transferred to a clear 96-well plate. Tartrate-resistant acid phosphatase activity in the supernatant samples was determined using an acid phosphatase assay kit (Sigma, St. Louis, Mo.). Absorbance was measured at 550 nm using a plate reader. […] The Inhibition activity against osteoclast differentiation for each compound at 1 μM treatment in duplicate was measured.

FLT3 kinase = FLT3 kinase (Homo sapiens (Human), UniProt P36888); experiment: FLT3 kinase assay (radiometric); type: biochemical; conditions: bound
Outline: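 Recombinant FLT3 (5 ng) phosphorylating poly(Glu4:Tyr1) (2 μg) with 10 μM ATP plus [^33P]-ATP in MOPS pH 7.0 buffer, 4% DMSO final, 60 min at 30° C. Reaction stopped with phosphoric acid, filter-captured and scintillation-counted; IC50 derived from dose-response.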

PDGFRβ kinase = PDGFRβ kinase (Homo sapiens (Human), UniProt P09619); experiment: PDGFRβ kinase assay (radiometric); type: biochemical
Outline: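 Radiometric assay: recombinant PDGFRβ with poly(Glu4:Tyr1) in MOPS pH 7.0 buffer containing Mg2+/Mn2+, 10 μM ATP plus [33P]-ATP, and compound at 4% DMSO final. Incubated 60 min at 30° C, stopped with phosphoric acid, filter-captured and scintillation-counted. IC50 from curve fitting.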

c-KIT kinase = c-KIT kinase (Homo sapiens (Human), UniProt P10721); experiment: c-KIT kinase assay (radiometric); type: biochemical
Outline: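 Recombinant c-Kit (20 ng) with 2 μg Poly-(Glu4:Tyr1) in MOPS pH 7.0 buffer with MgCl2/MnCl2, 10 μM ATP plus [^33P]-ATP, 4% DMSO final, 60 min at 30° C. Stopped with phosphoric acid, filter-captured and scintillation counted; IC50 from curve fit.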

[3] = tested on: MV4-11 human acute myeloid leukemia cell with FLT3-ITD mutation; experiment: MV4-11 cell proliferation assay (CellTiter-96); type: cell-based; conditions: Cytotoxicity, MV4-11 cells, 72 hours
Outline: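 MV4-11 cells (FLT3-ITD, FLT3-dependent growth) seeded at 6500 cells/well, incubated overnight at 37° C., 5% CO2, then exposed to increasing compound concentrations for 72 hours. Viability read by CellTiter96 AQueous One reagent (4 hours), absorbance at 490 nm.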

[4] = tested on: CSF-1-dependent M-NFS-60 mouse myeloid leukemia cell; experiment: M-NFS-60 cell proliferation assay (CellTiter-96); type: cell-based; conditions: Cytotoxicity, M-NFS-60 cells, 72 hours
Outline: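 CSF-1-dependent M-NFS-60 cells seeded at 2000 cells/well, settled overnight at 37 °C, 5% CO2, then exposed to increasing compound concentrations for 72 h. Viability read by CellTiter 96 AQueous One reagent (4 h) at 490 nm absorbance.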

CSF-1R kinase = CSF-1R kinase (Homo sapiens (Human), UniProt P07333); experiment: CSF-1R kinase assay (AlphaScreen); type: biochemical; conditions: class symbol
Description: Inhibition of CSF-1R kinase activity by a test compound disclosed herein was estimated by AlphaScreen (PerkinElmer). […] Reactions were incubated at 30° C. for 45 min and stopped by adding 5 μL of 50 mM EDTA. Analysis of resulting product using an AlphaScreen kit, and counted with Enspire Alpha (PerkinElmer). […] The IC50 values of quinoxaline compounds of this invention against CSF-1R kinase were determined using the GraphPad Prism 5 software.

[5] = tested on: THP-1 human acute monocytic leukemia cell harboring NRAS G12D mutation; experiment: THP-1 cell proliferation assay (counter screen, CellTiter-96); type: cell-based; conditions: Cytotoxicity, THP-1 cells (counter screen), 72 hours
Outline: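 THP-1 cells, RTK-independent owing to NRAS G12D, seeded at 5000/well, incubated overnight at 37 °C/5% CO2, then exposed to increasing compound concentrations for 72 h. CellTiter96 AQueous One reagent added for 4 h; viability from absorbance at 490 nm.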

Sequence of c-KIT kinase (P10721 26-976): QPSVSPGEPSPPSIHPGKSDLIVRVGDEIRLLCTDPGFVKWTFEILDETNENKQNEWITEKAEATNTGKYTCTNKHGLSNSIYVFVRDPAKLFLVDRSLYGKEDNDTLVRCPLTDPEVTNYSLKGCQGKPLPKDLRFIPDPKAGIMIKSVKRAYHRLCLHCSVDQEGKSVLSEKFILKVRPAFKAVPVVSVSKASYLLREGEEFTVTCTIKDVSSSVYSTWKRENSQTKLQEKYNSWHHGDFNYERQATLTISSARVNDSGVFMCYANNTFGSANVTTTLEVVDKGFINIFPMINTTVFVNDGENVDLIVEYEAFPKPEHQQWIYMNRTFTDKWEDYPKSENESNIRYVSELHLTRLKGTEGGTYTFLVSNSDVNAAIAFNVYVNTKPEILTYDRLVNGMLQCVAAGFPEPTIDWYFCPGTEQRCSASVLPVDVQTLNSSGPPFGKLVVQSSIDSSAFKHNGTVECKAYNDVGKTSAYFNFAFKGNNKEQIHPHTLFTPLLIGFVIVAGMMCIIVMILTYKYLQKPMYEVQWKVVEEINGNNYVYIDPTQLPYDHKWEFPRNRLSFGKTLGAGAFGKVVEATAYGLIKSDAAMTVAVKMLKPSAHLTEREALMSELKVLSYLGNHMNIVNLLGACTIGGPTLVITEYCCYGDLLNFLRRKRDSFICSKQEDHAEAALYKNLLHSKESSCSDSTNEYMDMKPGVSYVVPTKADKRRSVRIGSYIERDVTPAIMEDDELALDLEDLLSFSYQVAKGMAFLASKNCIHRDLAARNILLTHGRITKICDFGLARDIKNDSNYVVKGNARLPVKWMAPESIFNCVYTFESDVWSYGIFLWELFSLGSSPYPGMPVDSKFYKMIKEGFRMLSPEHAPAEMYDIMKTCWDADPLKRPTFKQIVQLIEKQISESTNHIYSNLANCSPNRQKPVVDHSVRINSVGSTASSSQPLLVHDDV
Sequence of PDGFRβ kinase (P09619 33-1106): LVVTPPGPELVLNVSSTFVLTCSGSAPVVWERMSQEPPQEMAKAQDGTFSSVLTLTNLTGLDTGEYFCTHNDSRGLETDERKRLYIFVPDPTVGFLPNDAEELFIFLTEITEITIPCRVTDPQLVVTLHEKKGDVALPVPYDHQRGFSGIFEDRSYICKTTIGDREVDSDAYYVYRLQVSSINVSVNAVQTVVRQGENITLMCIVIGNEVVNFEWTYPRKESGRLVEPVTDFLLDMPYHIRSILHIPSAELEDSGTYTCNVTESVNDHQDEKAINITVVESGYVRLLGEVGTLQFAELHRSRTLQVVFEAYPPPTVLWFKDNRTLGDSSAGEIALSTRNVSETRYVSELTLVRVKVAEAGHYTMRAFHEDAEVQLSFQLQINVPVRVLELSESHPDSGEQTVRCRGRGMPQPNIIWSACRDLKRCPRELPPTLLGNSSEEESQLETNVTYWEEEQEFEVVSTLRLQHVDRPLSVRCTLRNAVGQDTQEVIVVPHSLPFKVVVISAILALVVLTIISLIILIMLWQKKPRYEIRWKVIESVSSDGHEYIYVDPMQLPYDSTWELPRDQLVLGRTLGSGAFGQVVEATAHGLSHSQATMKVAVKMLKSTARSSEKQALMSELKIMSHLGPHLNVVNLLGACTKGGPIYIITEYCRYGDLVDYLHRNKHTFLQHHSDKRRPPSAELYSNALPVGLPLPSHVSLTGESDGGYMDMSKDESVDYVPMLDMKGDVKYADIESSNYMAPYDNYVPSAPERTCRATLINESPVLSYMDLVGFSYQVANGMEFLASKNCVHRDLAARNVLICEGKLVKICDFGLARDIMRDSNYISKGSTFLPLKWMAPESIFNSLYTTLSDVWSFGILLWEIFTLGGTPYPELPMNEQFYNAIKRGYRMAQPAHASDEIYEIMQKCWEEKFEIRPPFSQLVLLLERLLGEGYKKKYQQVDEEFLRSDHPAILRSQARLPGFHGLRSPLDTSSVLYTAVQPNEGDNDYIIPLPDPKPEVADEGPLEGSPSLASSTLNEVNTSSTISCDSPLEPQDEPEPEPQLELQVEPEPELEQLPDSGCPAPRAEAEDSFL
Sequence of FLT3 kinase (P36888 27-993): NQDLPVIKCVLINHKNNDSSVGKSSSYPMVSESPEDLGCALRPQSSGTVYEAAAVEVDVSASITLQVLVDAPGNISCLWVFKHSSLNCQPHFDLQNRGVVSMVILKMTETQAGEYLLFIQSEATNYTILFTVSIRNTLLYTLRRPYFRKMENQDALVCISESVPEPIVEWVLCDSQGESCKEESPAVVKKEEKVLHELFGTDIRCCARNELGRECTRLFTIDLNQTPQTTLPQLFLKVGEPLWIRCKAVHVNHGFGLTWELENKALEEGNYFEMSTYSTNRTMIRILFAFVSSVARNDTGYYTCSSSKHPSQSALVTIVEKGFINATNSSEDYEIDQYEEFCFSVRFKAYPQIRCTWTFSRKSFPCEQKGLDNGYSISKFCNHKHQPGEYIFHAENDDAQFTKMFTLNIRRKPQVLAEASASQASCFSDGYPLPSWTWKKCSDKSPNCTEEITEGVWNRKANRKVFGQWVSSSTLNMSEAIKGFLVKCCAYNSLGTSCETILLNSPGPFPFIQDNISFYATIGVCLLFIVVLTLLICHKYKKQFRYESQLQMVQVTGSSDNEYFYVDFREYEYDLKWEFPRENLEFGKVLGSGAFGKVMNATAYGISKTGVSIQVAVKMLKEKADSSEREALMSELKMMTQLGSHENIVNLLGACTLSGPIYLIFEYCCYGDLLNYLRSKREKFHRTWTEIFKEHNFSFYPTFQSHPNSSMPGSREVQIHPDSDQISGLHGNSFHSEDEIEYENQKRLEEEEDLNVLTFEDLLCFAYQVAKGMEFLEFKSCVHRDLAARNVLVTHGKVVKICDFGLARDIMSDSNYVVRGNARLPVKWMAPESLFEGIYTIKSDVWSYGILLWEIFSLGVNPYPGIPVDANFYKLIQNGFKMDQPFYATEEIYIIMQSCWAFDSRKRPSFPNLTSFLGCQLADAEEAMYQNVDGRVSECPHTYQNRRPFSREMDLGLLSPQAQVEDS
Sequence of CSF-1R kinase (P07333 20-972): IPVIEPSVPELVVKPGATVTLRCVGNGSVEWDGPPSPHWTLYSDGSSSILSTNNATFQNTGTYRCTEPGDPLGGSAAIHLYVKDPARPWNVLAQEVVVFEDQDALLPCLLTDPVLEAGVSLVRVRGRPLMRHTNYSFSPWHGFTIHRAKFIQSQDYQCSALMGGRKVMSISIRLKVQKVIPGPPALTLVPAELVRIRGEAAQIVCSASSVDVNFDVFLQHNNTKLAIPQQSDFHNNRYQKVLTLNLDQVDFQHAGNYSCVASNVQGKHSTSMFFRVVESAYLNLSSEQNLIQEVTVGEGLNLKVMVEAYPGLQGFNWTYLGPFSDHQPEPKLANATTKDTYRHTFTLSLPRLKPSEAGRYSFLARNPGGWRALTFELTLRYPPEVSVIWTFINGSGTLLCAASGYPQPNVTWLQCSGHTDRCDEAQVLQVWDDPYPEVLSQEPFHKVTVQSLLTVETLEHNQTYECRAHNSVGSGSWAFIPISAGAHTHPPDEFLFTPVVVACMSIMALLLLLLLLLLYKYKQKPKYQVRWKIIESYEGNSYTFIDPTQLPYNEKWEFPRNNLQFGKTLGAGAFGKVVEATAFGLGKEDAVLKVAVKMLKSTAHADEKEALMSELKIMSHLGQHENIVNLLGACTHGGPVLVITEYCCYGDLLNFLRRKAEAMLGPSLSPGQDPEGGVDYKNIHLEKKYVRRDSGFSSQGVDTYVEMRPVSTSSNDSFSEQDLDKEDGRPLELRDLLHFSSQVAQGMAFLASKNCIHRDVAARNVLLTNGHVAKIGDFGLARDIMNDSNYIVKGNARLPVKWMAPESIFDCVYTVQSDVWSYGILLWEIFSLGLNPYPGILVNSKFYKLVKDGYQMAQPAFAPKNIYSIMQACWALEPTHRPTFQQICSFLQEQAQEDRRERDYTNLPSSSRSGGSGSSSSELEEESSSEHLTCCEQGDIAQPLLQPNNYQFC

| SMILES | IC50 [1] [nM] | inhibition at 1 µM [2] [%] | IC50 (FLT3 kinase) [nM] | IC50 (PDGFRβ kinase; bound) [nM] | IC50 (c-KIT kinase; class symbol) [nM] | IC50 [3] [nM] | IC50 [4] [nM] | IC50 (CSF-1R kinase) [nM] | IC50 [5] [nM] | IC50 (PDGFRβ kinase; class symbol) [nM] | IC50 (c-KIT kinase; bound) [nM] |
| --- | --- | --- | --- | --- | --- | --- | --- | --- | --- | --- | --- |
| COc1cc(Nc2ccc3ncc(N4CCOCC4)nc3c2C#N)ccc1OCc1ccsc1 [Example 126, 6-((3-methoxy-4-(thiophen-3-ylmethoxy)phenyl)amino)-3-morpholinoquinoxaline-5-carbonitrile] | < 300 | > 50 | > 1000 | > 1000 | < 100 | 1000 to 10000 | 300 to 1000 | < 100 | > 10000 |  |  |
| COc1cc(Nc2ccc3ncc(N4CCOCC4)nc3c2C#N)ccc1OCc1ccc(OC(F)(F)F)cc1 [Example 32, 6-((3-methoxy-4-((4-(trifluoromethoxy)benzyl)oxy)phenyl)amino)-3-morpholinoquinoxaline-5-carbonitrile] | 300 to 1000 | > 50 | > 1000 |  | < 100 | 1000 to 10000 | < 300 | < 100 | > 10000 | 100 to 300 |  |
| COc1ccc(COc2ccc(Nc3ccc4ncc(N5CCCC5)nc4c3C#N)cc2OC)cn1 [Example 79, 6-((3-methoxy-4-((6-methoxypyridin-3-yl)methoxy)phenyl)amino)-3-(pyrrolidin-1-yl)quinoxaline-5-carbonitrile] | 300 to 1000 | > 50 | > 1000 | > 1000 | < 100 | 1000 to 10000 | < 300 | < 100 | > 10000 |  |  |
| COc1cc(Nc2ccc3ncc(C4=CCOCC4)nc3c2C#N)ccc1OCc1ccc(C)nc1 [Example 113, 3-(3,6-dihydro-2H-pyran-4-yl)-6-((3-methoxy-4-((6-methylpyridin-3-yl)methoxy)phenyl)amino)quinoxaline-5-carbonitrile] | 300 to 1000 | > 50 | > 1000 | > 1000 | < 100 | 1000 to 10000 | < 300 | < 100 | > 10000 |  |  |
| COc1cc(Nc2ccc3ncc(N4C[C@@H](C)O[C@@H](C)C4)nc3c2C#N)ccc1OCc1ccc(C)nc1 [Example 145, 3-((2S,6R)-2,6-dimethylmorpholino)-6-((3-methoxy-4-((6-methyl-pyridin-3-yl)methoxy)phenyl)amino)quinoxaline-5-carbonitrile] | 300 to 1000 | > 50 | > 1000 | > 1000 | 100 to 300 | 1000 to 10000 | < 300 | < 100 | > 10000 |  |  |
| C=C(C)c1cnc2ccc(Nc3ccc(OCc4ccc(OC)cc4)c(OC)c3)c(C#N)c2n1 [Example 108, 6-((3-methoxy-4-((4-methoxybenzyl)oxy)phenyl)amino)-3-(prop-1-en-2-yl)quinoxaline-5-carbonitrile] | > 10000 | > 50 | > 1000 | > 1000 |  | > 10000 | 1000 to 10000 | < 100 | > 10000 |  | > 1000 |
| COc1ccc(COc2ccc(Nc3ccc4ncc(C(C)C)nc4c3C#N)cc2OC)cc1 [Example 109, 3-isopropyl-6-((3-methoxy-4-((4-methoxybenzyl)oxy)phenyl)amino)quinoxaline-5-carbonitrile] | 1000 to 10000 | > 50 | > 1000 | > 1000 |  | > 10000 | 1000 to 10000 | < 100 | > 10000 |  | > 1000 |
| COc1cc(Nc2ccc3ncc(N4CCOCC4)nc3c2C#N)ccc1OCc1ccc(Cl)cc1 [Example 49, 6-((4-((4-chlorobenzyl)oxy)-3-methoxyphenyl)amino)-3-morpholinoquinoxaline-5-carbonitrile] | 300 to 1000 | > 50 | > 1000 | > 1000 | < 100 | 1000 to 10000 | < 300 | < 100 | > 10000 |  |  |
| CCc1ccc(COc2ccc(Nc3ccc4ncc(N5CCOCC5)nc4c3C#N)cc2OC)cn1 [Example 101, 6-((4-((6-ethylpyridin-3-yl)methoxy)-3-methoxyphenyl)amino)-3-morpholinoquinoxaline-5-carbonitrile] | < 300 | > 50 | > 1000 | > 1000 | < 100 | 1000 to 10000 | < 300 | < 100 | > 10000 |  |  |
| COc1cc(Nc2ccc3ncc(N4CCOCC4)nc3c2C#N)ccc1OCc1ccc2c(c1)CCO2 [Example 45, 6-((4-((2,3-dihydrobenzofuran-5-yl)methoxy)-3-methoxyphenyl)amino)-3-morpholinoquinoxaline-5-carbonitrile] | 300 to 1000 | > 50 | > 1000 | > 1000 | < 100 | > 10000 | < 300 | < 100 | > 10000 |  |  |
| COc1ccc(COc2ccc(Nc3ccc4ncc(N5CCN(C(C)=O)CC5)nc4c3C#N)cc2OC)cc1 [Example 72, 3-(4-acetylpiperazin-1-yl)-6-((3-methoxy-4-((4-methoxybenzyl)oxy)phenyl)amino)quinoxaline-5-carbonitrile] | < 300 | > 50 | > 1000 |  | < 100 | > 10000 | < 300 | < 100 | > 10000 | 300 to 1000 |  |
| COc1cc(Nc2ccc3ncc(N(C)C)nc3c2C#N)ccc1OCc1ccc(C)nc1 [Example 133, 3-(dimethylamino)-6-((3-methoxy-4-((6-methylpyridin-3-yl)methoxy)phenyl)amino)quinoxaline-5-carbonitrile] | 300 to 1000 | > 50 | > 1000 | > 1000 | < 100 | > 10000 | < 300 | < 100 | > 10000 |  |  |
| COc1cc(Nc2ccc3ncc(N4CCOCC4)nc3c2C#N)ccc1OCc1ccc(C#N)cc1 [Example 64, 6-((4-((4-cyanobenzyl)oxy)-3-methoxyphenyl)amino)-3-morpholinoquinoxaline-5-carbonitrile] | 300 to 1000 | > 50 | > 1000 | > 1000 | < 100 | 1000 to 10000 | < 300 | < 100 | > 10000 |  |  |
| COc1cc(Nc2ccc3ncc(N4CCOCC4)nc3c2C#N)ccc1OCc1ccc(C(C)C)nc1 [Example 103, 6-((4-((6-isopropylpyridin-3-yl)methoxy)-3-methoxyphenyl)amino)-3-morpholinoquinoxaline-5-carbonitrile] | < 300 | > 50 | > 1000 | > 1000 | < 100 | 1000 to 10000 | < 300 | < 100 | > 10000 |  |  |
